The values below come from patent US7145043B2, “Non-Hazardous oxidative neutralization of aldehydes” (Ethicon, Inc., priority 2003, dated 2006).

The subject of this data set is Fathead Minnow. The note with it: 750 mg/L concentration, 48 hours.

Text: CALIFORNIA CODE REGS (“CCR”) Title 22-Fathead Minnow Hazardous Waste Screen Bioassay.

On to `OO` [Hydrogen peroxide (5%), Hydrogen peroxide], for which the survival was found to be 0%.
